Data set [1] is described as follows: in vitro. As to conditions: human.
Data set [2] deals with HSV-1, strain DM2.1 (a resistant isolate). The data set can be described thus: Plaque reduction assay in HFF cells. The format is cell-based. As to conditions: Human alphaherpesvirus 1, HFF. How it is done: (§1) E-377 and DM2.1 strains of HSV-1 as well as the MS strain of HSV-2 were a gift of Jack Hill (Burroughs Wellcome). HCMV strain AD169 and VZV strain Ellen were obtained from the American Type Culture Collection (ATCC, Manassas, Va.).
(§2) Monolayers of HFF cells were prepared in six-well plates and incubated at 37° C. for 2 d to allow the cells to reach confluency. Media was then aspirated from the wells and 0.2 ml of virus was added to each of three wells to yield 20-30 plaques in each well. The virus was allowed to adsorb to the cells for 1 h and the plates were agitated every 15 minutes. Compounds were diluted in assay media consisting of MEM with Earl's salts supplemented with 2% FBS, L-glutamine, penicillin, and gentamycin. Solutions ranging from 300 μM to 0.1 μM were added to duplicate wells and the plates were incubated for various times, depending on the virus used. For HSV-1 and -2, the monolayers were then stained with 1% crystal violet in 20% methanol and the unbound dye removed by washing with dH2O. For all other assays, the cell monolayer was stained with 1% Neutral Red solution for 4 h then the stain was aspirated and the cells were washed with PBS. For all assays, plaques were enumerated using a stereomicroscope and the concentration of compound that reduced plaque formation by 50% (EC50) was interpolated from the experimental data.

The test system of data set [3] is VZV, strain Ellen. Description: Plaque reduction assay in HFF cells. The format is cell-based. Particulars: for EC50: Human alphaherpesvirus 3, reduces viral replication by 50%; for EC90: Human alphaherpesvirus 3, reduces viral replication by 90%. The procedure:
HCMV strain AD169 and VZV strain Ellen were obtained from the American Type Culture Collection (ATCC, Manassas, Va.).
as §2, with “PBS.” for “PBS. For all assays, plaques were enumerated using a stereomicroscope and the concentration of compound that reduced plaque formation by 50% (EC50) was interpolated from the experimental data.”
However, unlike assays for HSV-1, HSV-2, MCMV and CMV compounds (where the compound is added to cells prior to virus addition), virus particles are not used in infection in assays for VZV where latent virus in the cells is induced to undergo a lytic infection, since the virions are unstable and infected cells. Thus, in the VZV study, bPEI is added to cell solution and virus is induced from within the cell by induction of lytic infectious cycle.

The subject of data set [4] is HSV-2, strain G. The data set can be described thus: Plaque reduction assay in HFF cells. It counts as cell-based. As to conditions: for EC50: reduces viral replication by 50%.
Data set [5] can be described thus: LD50 in rat. Particulars: conversion in brackets.
For data set [6] the following is noted: rat; cited from earlier work.
The conditions of data set [7]: cited from earlier work.
Data set [8] in a line: LD50 (species not stated). As to conditions: conversion in brackets. The format is in vivo.
For data set [9], the system named is phage λ. Description: Intracapsid DNA transition temperature by ITC and SAXS. As to conditions: 78% WT DNA length phage λ, 20 mM EDTA added to 10 mM MgCl2 Tris-buffer. Also noted: species or system bacteriophage λ. The text has this:
WT bacteriophage λ cI857, with a genome length of 48.5 kb was produced by thermal induction of lysogenic E. coli strain AE1 derived from the 52773 strain. Two phage λ mutants with shorter genome lengths (78 and 94% of the WT DNA length) were produced using a similar procedure. The receptor was the LamB protein purified from pop 154, a strain of E. coli K12 in which the LamB gene has been transduced from Shigella sonnei 3070. Phage and LamB purification details are described in Evilevitch A., et al., Osmotic pressure inhibition of DNA ejection from phage. Proc. Natl. Acad. Sci. U.S.A. 2003; 100:9292-9295 and Ivanovska I., et al., Internal DNA pressure modifies stability of WT phage. Proc. Natl. Acad. Sci. U.S.A. 2007; 104:9603-9608.
All calorimetric measurements were performed using the MicroCal iTC200 system manufactured by GE Healthcare, Life Sciences. […] J. Mol. Biol. 2010; 395:1079-1087.
Small angle X-ray scattering (SAXS) measurements were carried out at the 12-ID B station at the Advanced Photon Source at Argonne National Laboratory. A 12-KeV X-ray beam was used to illuminate the sample with an overall scattering vector q range from 0.006 to 0.850 Å-1. A total of 120 μl of phage solution (˜5×1013 pfu/ml) was injected into a flow-through glass capillary and the solution was oscillated during the SAXS measurement with a flow rate of 10 μl/s. Forty scans with 1 s X-ray exposure time were collected and averaged for each sample. A buffer solution of the dialysis buffer for phage samples was measured using the same SAXS setup, which was further subtracted as the background. After the background subtraction, the scattered intensity I versus q was plotted and the DNA peak region was truncated from 0.18 Å-1 to 0.33 Å-1. This DNA diffraction peak was fitted with a Gaussian curve plus a linear background using function (1), where q0 is the peak center, w is the peak width, A0 is the peak area, k is the slope of the linear background and c is the offset.
(§3) [formula] […] Single-Molecule Fluorescence Measurements of Phage Ejection Ensemble Kinetics.
ITC and SAXS assays were used to determine DNA transition temperatures for WT λ-DNA length phage in MgCl2 Tris-buffer with MgCl2 concentrations varied between 5 and 50 mM, see FIGS. 3A-3C. The intracapsid DNA transition occurs at temperature T*, corresponding to either a discontinuity in the linear dependence of ΔHej on temperature (FIG. 3A) or to an abrupt change in the linear decay of the DNA diffraction peak area versus temperature measured by SAXS (FIG. 3B). DNA transition temperatures as a function of Mg-concentration determined by both techniques are in good agreement with each other and are summarized in FIG. 3C. […] However, the inventors have previously shown that at DNA packing density in phage λ, the screening effect of Mg-ions will become progressively smaller with increasing Mg-concentration due to the counter-ion saturation (Evilevitch A., et al., Effects of salt concentrations and bending energy on the extent of ejection of phage genomes. Biophys. J. 2008; 94:1110-1120). Furthermore, if the Mg ion concentration continues to increase, the counterions are forced into regions on the helices that begin to increase the effective repulsions between packaged DNA strands. […]

The subject of data set [10] is packaged viral DNA in the capsid. Particulars: low-salt buffer, Mg2+ removed by EDTA.
Description: as §3
Phage particles were imaged using a Nikon 2000E2 microscope with a spinning disk confocal scan head (Yokagawa Industries, Tokyo, Japan).

Data set [11] deals with HCMV, strain AD169. Description: Plaque reduction assay in HFF cells. Particulars: Human betaherpesvirus 5, AD169, HFF. The format is cell-based. The procedure: as §1, §2
In data set [12] the test system is HSV-1, strain E-377. The data set can be described thus: Plaque reduction assay in HFF cells. The format is cell-based. Particulars: Human alphaherpesvirus 1, HFF. How it is done:
as §1, §2

The subject of data set [13] is DNA. As to conditions: literature values; cited from earlier work.
Data set [14] deals with cell membrane. Particulars: cited from earlier work.
A short description of data set [15]: Parallel cytotoxicity assay in uninfected HFF cells. As to conditions: human.
In data set [16] the test system is DNA. The data set can be described thus: DNA condensation, internal experimental observations, dint. Particulars: 0.15-2.50 mM. It counts as biochemical.
For data set [17], the system named is HSV-1, HSV-2, VZV, HCMV. Description: Antiviral screening study of condensing compounds. The format is cell-based. Particulars: result in words. The procedure: PAMAM Dendrimer G0, branched polyethylenimine (bPEI), Arg5+, DAB-AM-4, and DAB-AM-8 were utilized as test compounds. These compounds are described above.
as §2

[18] abbreviates: CC50, parallel to HSV-1 E-377 assay, reduces cell viability by 50%.
Setting [19] is: CC50, parallel to HSV-2 strain G assay.
Setting [20] is: CC50, parallel to VZV Ellen assay.

The source of these data is US10702572B2, “Methods and compounds to suppress viral genome release and packaging” (Carnegie Mellon University, priority 2015, dated 2020).

Like-named read-outs stand apart in the source and are kept apart here. Where no end group is shown, it is not given here. Where only a bound is given, the exact number is not on record here.

As to `Nc1nc2c(ncn2COCCO)c(=O)[nH]1` [Acyclovir, reference compound], the CC50 in [1] (CC50, parallel to HSV-1 DM2.1 assay) was more than 150 µM; in data set [1] (setting [18]) it was more than 150 µM; in [1] (setting [19]) it was more than 150 µM; in data set [1] (setting [20]) it was more than 150 µM. Also, the half-maximal effective concentration (EC50) in [2] is more than 150 µM; in data set [3], 5.14 µM; in [4] (Human alphaherpesvirus 2, HFF), 3.69 µM; in data set [4], 2.88 µM. The figures for the EC90 in data set [2] and in data set [3] were more than 150 µM and 23.8 µM, respectively.
As to `CCCCCCCCCCCCCCCC[N+](C)(C)C.[Br-]` [CTAB, hexadecyltrimethylammonium bromide], in data set [5], the LD50 as concentration is on record as approximately 1.1 mM. Further, the LD50 in [6] was 410 mg/kg.
On to `O=C(O)[C@@H](S)[C@@H](S)C(=O)O` [DMSA, meso-2,3-Dimercaptosuccinic acid], for which the LD50 in data set [7] (species and route not given) is given as 5011 mg/kg. In addition, in [8], the LD50 as concentration is approximately 27.5 mM.
As to `CCCCCCCCCCCC[N+](C)(C)C.[Br-]` [DTAB, dodecyltrimethylammonium bromide], the LD50 as concentration in data set [5] was 0.6 to 3.2 mM. For the same compound, in data set [6], the LD50 is 200 to 1000 mg/kg.
Regarding `O=C(O)CN(CCN(CC(=O)O)CC(=O)O)CC(=O)O` [EDTA, Ethylenediaminetetraacetic acid], the “DNA transition temperature T*” value in data set [9] is approximately 36 °C. In data set [10], the “DNA ejection from the capsid” value was “essentially stalled” and the infection entry was “no infection is observed”.
For the compound `O=C(O)CN(CCOCCOCCN(CC(=O)O)CC(=O)O)CC(=O)O` [EGTA, Ethylene glycol-bis(2-aminoethylether)-N,N,N′,N′-tetraacetic acid], the LD50 in data set [7] (in vivo) was 3587 mg/kg. The compound also yielded an LD50 as concentration in data set [8] of approximately 9.5 mM.
Turning to `NCCNC(=O)CCN(CCC(=O)NCCN)CCN(CCC(=O)NCCN)CCC(=O)NCCN` [PAMAM Dendrimer G0, PAMAM dendrimer, ethylenediamine core, generation 0.0 solution], the EC50 in [11] (reduces viral replication by 50%) was more than 0.6 µM; in [12] (concentration that reduces viral replication by 50%, various trials, each with its control) it was 0.29 µM; in [3] it was more than 0.6 µM; in data set [4] (Human alphaherpesvirus 2, HFF), 0.09 µM. The EC90 is more than 0.6 µM in [11] (reduces viral replication by 90%); more than 3 µM in data set [12] (concentration that reduces viral replication by 90%); more than 0.6 µM in data set [3]; more than 3 µM in data set [4] (Human alphaherpesvirus 2, HFF, reduces viral replication by 90%). In addition, the “dint (DNA condensation observed experimentally)” value in [13] was 31 Å. Besides, in data set [14] (compound alone, previously shown), the “permeation of the cell membrane” value is listed as “permeate the cell membrane”. Besides, the CC50 came out at 1.39 µM in [15] (CC50, parallel to HCMV AD169 assay); 3.79 µM in data set [15] (setting [18]); 4.77 µM in data set [15] (setting [19]); 1.17 µM in data set [15] (setting [20]). In addition, the “dint, internal observations” value in [16] is given as 32-35.2 Å.
The compound `CCCCCCCCCCCCCC[N+](C)(C)C.[Br-]` [TTAB, myristyltrimethylammonium bromide] registered an LD50 as concentration in data set [5] of approximately 11.6 mM. In addition, the LD50 in data set [6] is 3900 mg/kg.
With RRRRR [Arg5+], the “antiviral activity in the screening study” value in [17] is “showed antiviral activity”. Further, the “permeation of the cell membrane” value in [14] (not told) is reported as “permeate the cell membrane”.
